Test results from patent US20060258598A1, “Alpha-keto carbonyl calpain inhibitors” (priority 2003, published 2006).
Values belong to the compound of their own block, whether it stands above or below them.

Columns and labels:
[1] = biological target: T1, 20S Proteasome (Oryctolagus cuniculus, UniProt G1T4Q9); assay: 20S Proteasome assay; assay type: biochemical, Rabbit; settings: substrate Suc-Leu-Leu-Val-Tyr-AMC; read-out: 20S Prot IC50
T1 sequence (G1T4Q9 1-263): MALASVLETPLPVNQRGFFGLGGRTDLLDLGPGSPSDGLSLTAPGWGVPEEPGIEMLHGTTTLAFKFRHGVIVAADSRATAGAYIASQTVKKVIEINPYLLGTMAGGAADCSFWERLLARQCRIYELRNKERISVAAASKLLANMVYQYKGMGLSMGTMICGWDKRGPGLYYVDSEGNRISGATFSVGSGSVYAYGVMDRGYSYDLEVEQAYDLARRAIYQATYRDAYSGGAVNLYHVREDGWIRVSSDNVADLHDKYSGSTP
Method: 25 μl of a reaction buffer containing 400 μM of the fluorogenic substrate Suc-Leu-Leu-Val-Tyr-AMC (Bachem) are dispensed per well of a white microtiter plate. Test compounds dissolved in 0.5 μl DMSO are added. To start the reaction; 25 μl of reaction buffer containing 35 ng of enzyme (20S Proteasome, Rabbit, Calbiochem) are added. The increase in fluorescence (excitation at 360 nm; emission at 440 nm) is measured over 30 min at 30° C. at 30″. The IC50's are then determined from the slopes.

[2] = test system: cellular calpains in C2C12 myoblasts; assay: Calpain inhibition assay in C2C12 myoblasts; assay type: cell-based; settings: 2 h incubation, calcium ionophore Br-A-23187, read-out: Calp I IC50 Myoblast
How it was run: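 Confluent C2C12 myoblasts in fusion medium (DMEM, 5% horse serum) exposed to compound for 2 h at 37 °C, then loaded with 400 μM Suc-Leu-Tyr-AMC for 20 min at room temperature in buffer with 4 mM CaCl2, HEPES pH 7.25. Calpains activated by Br-A-23187 ionophore (20 μM in added buffer); AMC fluorescence read each minute for 60 min at 37 °C to derive IC50.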

[3] = test system: Primary fibroblasts from donors with Friedreich Ataxia (FRDA); assay: BSO assay (cell viability under BSO-induced oxidative stress); assay type: cell-based, human; settings: 24 h preincubation, 1 mM BSO; for EC50: Homo sapiens, Fibroblast
How it was run: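 FRDA patient primary fibroblasts were pretreated with compounds for 24 h, then exposed to 1 mM BSO (final) until toxicity appeared in BSO-only controls (typically 16–48 h). Viability was read by calcein AM (1.2 μM)/ethidium homodimer (4 μM) staining, 60 min RT, fluorescence 485/525 nm.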

[4] = biological target: T2, human μ-calpain (Homo sapiens, UniProt P07384); assay: Enzymatic calpain inhibition assay; assay type: biochemical; settings: substrate Suc-Leu-Tyr-AMC, read-out: Calp I IC50
T2 construct: purchased Calbiochem
T2 sequence (P07384 1-714): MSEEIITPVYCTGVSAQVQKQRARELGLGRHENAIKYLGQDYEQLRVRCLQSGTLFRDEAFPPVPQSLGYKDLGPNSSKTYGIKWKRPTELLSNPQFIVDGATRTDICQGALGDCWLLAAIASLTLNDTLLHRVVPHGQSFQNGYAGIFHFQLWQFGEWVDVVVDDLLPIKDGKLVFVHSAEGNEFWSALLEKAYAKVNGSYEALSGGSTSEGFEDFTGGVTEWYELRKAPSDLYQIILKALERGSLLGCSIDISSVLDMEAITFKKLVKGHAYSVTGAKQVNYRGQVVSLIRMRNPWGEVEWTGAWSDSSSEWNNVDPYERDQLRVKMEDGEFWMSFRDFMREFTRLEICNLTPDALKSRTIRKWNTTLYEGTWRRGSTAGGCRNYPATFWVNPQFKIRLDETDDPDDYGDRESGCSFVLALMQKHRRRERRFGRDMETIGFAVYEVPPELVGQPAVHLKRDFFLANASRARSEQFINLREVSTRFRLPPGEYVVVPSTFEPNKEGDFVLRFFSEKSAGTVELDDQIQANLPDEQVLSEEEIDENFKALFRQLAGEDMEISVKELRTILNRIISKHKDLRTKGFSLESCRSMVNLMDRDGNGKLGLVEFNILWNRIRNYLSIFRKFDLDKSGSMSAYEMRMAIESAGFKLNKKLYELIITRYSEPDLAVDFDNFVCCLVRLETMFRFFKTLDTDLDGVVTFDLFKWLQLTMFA
T2 sequence (P04632 1-268 partner): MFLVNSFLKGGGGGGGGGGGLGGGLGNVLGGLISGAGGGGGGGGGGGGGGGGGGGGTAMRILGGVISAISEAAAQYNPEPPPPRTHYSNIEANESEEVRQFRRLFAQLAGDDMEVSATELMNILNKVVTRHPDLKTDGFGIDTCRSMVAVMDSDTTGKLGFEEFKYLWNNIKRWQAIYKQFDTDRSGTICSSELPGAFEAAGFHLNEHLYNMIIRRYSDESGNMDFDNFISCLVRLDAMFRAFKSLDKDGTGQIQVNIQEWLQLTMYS
How it was run: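 Human μ-calpain (0.5 μg) with 250 μM Suc-Leu-Tyr-AMC in 100 mM imidazole pH 7.5, 5 mM cysteine, 5 mM CaCl2. AMC fluorescence (ex 360/em 440 nm) followed 30 min at 30 °C; IC50 determined graphically from initial velocities versus inhibitor concentration.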

[5] = test system: experimental muscular dystrophy in hamster; settings: cited from earlier work
[6] = test system: mdx mouse; assay: Longterm treatment of mdx mice (model for Duchenne Muscular Dystrophy); assay type: in vivo; settings: 3 week old mice, treatment period of 4 weeks
Method: The mdx mouse is a well established animal model for Duchenne Muscular Dystrophy (Bulfield G., Siller W. G., Wight P. A., Moore K. J., X chromosome-linked muscular dystrophy (mdx) in the mouse, Proc. Natl. Acad. Sci. USA., 1984, 81(4), 1189-1192). Selected compounds were tested in longterm treatments of mdx mice, according to the procedures described below.
Mouse strains: C57BL/10scsn and C57BL/10scsn mdx mouse strains were purchased at The Jackson Laboratory (ME, USA) and bred inhouse. Mouse males were sacrificed at the age of 3 or 7 weeks by CO2 asphyxiation.
Treatment: Compounds were dissolved in 50% PEG, 50% saline solution and applied by i.p. injection.
Histology: Tibialis anterior (TA) and diaphragm (Dia) muscles were collected and mounted on cork supports using gum tragacanth (Sigma-Aldrich, Germany). The samples were snap-frozen in melting isopentane and stored at −80° C. 12 μm thick cryosections of the mid-belly region of muscles were prepared. For staining, sections were air dried and fixed with 4% PFA in PBS for 5 minutes, washed 3 times with PBS and incubated over night at 4° C. in PBS containing 2 μg/ml Alexa Fluor™ 488 conjugated wheat-germ agglutinin (WGA-Alexa, Molecular Probes, Eugen, Oreg., USA) to stain membrane-bound and extracellular epitopes and 1 μg/ml 4′,6-diamidino-2-phenylindole (DAPI; Molecular Probes) to stain nuclei.
Image acquisition and analysis: Fluorescence microscopy images of both labels were acquired using a digital camera (ColorView II, Soft Imaging System, Munster, Germany) coupled to a fluorescence microscope (Vanox S, Olympus, Tokyo, Japan). Combination of these two stainings to a composite image, assembling of several images to a complete image of the entire muscle cross-section and further semi-automated analysis was performed using the image analysis program AnalySIS (Soft Imaging System). Image analysis of 1200-2900 muscle fibers in each section was performed in three steps: 1) determination of the muscle fiber boundaries, 2) determination of the muscle fiber size, and 3) determination of the percentage of muscle fibers containing centralized nuclei. Six different geometrical parameters were tested for the determination of the muscle fiber size: (a) the “minimal feret” (the minimum distance of parallel tangents at opposing borders of the muscle fiber), (b) the “area”, (c) the “minimal inner diameter” (the minimum diameter through the center of the muscle fiber), (d) the “minimal diameter” (the minimum diameter of a muscle fiber for angles in the range 0° through 179° with step width 1°, (e) the “minimal outer diameter” (the minimum diameter through the muscle fiber from outer border to outer border), and (f) the “perimeter”. The variance coefficient of the muscle fiber size is defined as follows: variance coefficient=(standard deviation of the muscle fiber size/mean of the muscle fiber size of the section)*1000. For statistical analysis of different variance coefficient values Mann-Whitney U test was used.
Selected Examples of the present invention were active in the mdx mouse model at 10 mg/kg/day, using 3 week old mice and a treatment period of 4 weeks (N=5−10).

Compound: CCNC(=O)C(=O)[C@H](Cc1ccc(Cl)cc1)NC(=O)[C@@H](NC(=O)CCCCC1CCCS1)C(C)C (some centres unmarked) [Example 3]
IC50 [1]: 110 nM
IC50 [2]: 400 nM
EC50 [3]: 4000 nM
IC50 [4]: 100 nM

Compound: CCNC(=O)C(=O)[C@H](Cc1ccc(Br)cc1)NC(=O)[C@H](CC(C)C)NC(=O)CCCCC1CCS[S+]1[O-] (some centres unmarked) [Example 65]
IC50 [1]: 400 nM
IC50 [2]: 1500 nM
EC50 [3]: 1000 nM
IC50 [4]: 15 nM

Compound: CCNC(=O)C(=O)[C@H](Cc1ccc(OC)cc1)NC(=O)[C@H](CC(C)C)NC(=O)CCCCC1CCSS1 (some centres unmarked) [Example 94]
IC50 [1]: 400 nM
IC50 [2]: 1000 nM
EC50 [3]: 1500 nM
IC50 [4]: 15 nM

Compound: CCNC(=O)C(=O)[C@H](Cc1ccc(C)cc1)NC(=O)[C@H](CC(C)C)NC(=O)CCCCC1CCSS1 (some centres unmarked) [Example 110]
IC50 [1]: 280 nM
IC50 [2]: 500 nM
EC50 [3]: 500 nM
IC50 [4]: 30 nM

Compound: CCNC(=O)C(=O)[C@H](CC1CCCCC1)NC(=O)[C@H](CC(C)C)NC(=O)CCCCC1CCSS1 (some centres unmarked) [Example 151]
IC50 [1]: > 100000 nM
IC50 [2]: 1800 nM
IC50 [4]: 35 nM

Compound: CCNC(=O)C(=O)[C@H](Cc1ccc(OC)cc1)NC(=O)[C@@H](NC(=O)c1cccc(NC(=O)CCCCC2CCSS2)c1)C(C)C (some centres unmarked) [Example 197]
IC50 [1]: 420 nM
IC50 [2]: 250 nM
IC50 [4]: 46 nM

Compound: CCOC(=O)[C@H]1O[C@@H]1C(=O)N[C@@H](CC(C)C)C(=O)NCCC(C)C [Example E-64-d]
life-prolonging effect [5]: life-prolonging effect

Compound: Z-Val-Phe-H [MDL-28170, reference compound]
IC50 [1]: > 1000 nM
IC50 [2]: 40000 nM
activity in the mdx mouse model [6]: did not show statistically significant activity

Further lines, with some results ahead:

IC50 [1]: 500 nM
IC50 [2]: 350 nM
IC50 [4]: 60 nM
Compound: CCNC(=O)C(=O)[C@H](Cc1ccc(Cl)cc1)NC(=O)[C@@H](NC(=O)CCCCC1CCSS1)C(C)C (some centres unmarked) [Example 1]
EC50 [3]: 350 nM

IC50 [1]: 800 nM
IC50 [2]: 3000 nM
IC50 [4]: 35 nM
Compound: CCNC(=O)C(=O)[C@H](Cc1ccc(F)cc1)NC(=O)[C@H](CC(C)C)NC(=O)CCCCC1CCSS1 (some centres unmarked) [Example 39]
BSO EC50 [3]: inactive

IC50 [1]: 450 nM
IC50 [2]: 400 nM
IC50 [4]: 40 nM
Compound: CCNC(=O)C(=O)[C@H](Cc1ccc(F)c(F)c1)NC(=O)[C@H](CC(C)C)NC(=O)CCCCC1CCSS1 (some centres unmarked) [Example 47]

IC50 [1]: 180 nM
IC50 [2]: 200 nM
IC50 [4]: 60 nM
Compound: CCNC(=O)C(=O)[C@H](Cc1ccc(Br)cc1)NC(=O)[C@@H](NC(=O)CCCCC1CCSS1)C(C)C (some centres unmarked) [Example 53]
EC50 [3]: 400 nM

IC50 [1]: > 1000 nM
IC50 [2]: 310 nM
IC50 [4]: 75 nM
Compound: CC(C)[C@H](NC(=O)CCCCC1CCSS1)C(=O)N[C@@H](Cc1ccc(Br)cc1)C(=O)C(=O)NC1CCCCC1 (some centres unmarked) [Example 57]
BSO EC50 [3]: inactive

IC50 [1]: > 10000 nM
IC50 [2]: 1200 nM
IC50 [4]: 400 nM
Compound: CCNC(=O)C(=O)[C@H](Cc1ccc(OC)cc1)NC(=O)[C@@H](NC(=O)CCCCC1CCC[S+]1[O-])C(C)C (some centres unmarked) [Example 87]
EC50 [3]: 9000 nM

IC50 [1]: 180 nM
IC50 [2]: 350 nM
IC50 [4]: 70 nM
Compound: CCNC(=O)C(=O)[C@H](Cc1ccc(C)cc1)NC(=O)[C@@H](NC(=O)CCCCC1CCSS1)C(C)C (some centres unmarked) [Example 104]
EC50 [3]: 300 nM

IC50 [1]: > 1000 nM
IC50 [2]: 1100 nM
IC50 [4]: 75 nM
Compound: CCNC(=O)C(=O)[C@H](Cc1ccc(C(F)(F)F)cc1)NC(=O)[C@H](CC(C)C)NC(=O)CCCCC1CCSS1 (some centres unmarked) [Example 124]
EC50 [3]: 5000 nM

IC50 [1]: 80 nM
IC50 [2]: 450 nM
IC50 [4]: 150 nM
Compound: Cc1ccc(S(=O)(=O)CNC(=O)C(=O)[C@H](Cc2ccccc2)NC(=O)[C@@H](NC(=O)CCCCC2CCSS2)C(C)C)cc1 (some centres unmarked) [Example 140]
EC50 [3]: 500 nM

IC50 [1]: > 1000 nM
IC50 [2]: 2000 nM
IC50 [4]: 20 nM
Compound: CCNC(=O)C(=O)[C@H](Cc1ccc(Br)cc1)NC(=O)[C@H](CC(C)C)NC(=O)CCCCC1SC[C@@H]2NC(=O)N[C@H]12 (some centres unmarked) [Example 164]
BSO EC50 [3]: inactive
